Experimental data taken from patent publication US8703756B2, “Synthetic procedure and cancer treatment with cisplatin derivatives” (The Board of Regents of the Nevada System of Higher …, priority 2012, dated 2014).

Experiments:
[1] = tested on: A549 human lung cancer cells; test: MTS cell proliferation assay, A549 lung cancer cells; assay type: cell-based; conditions: for effects in this experimental setting: human cancer cell line setting of b48
Procedure: A series of cisplatin analogs of the formula (4,4′-bis[RO]-2,2′-bipyridine)PtCl2 [where, R=—(CH2)nCH3, —(CH2)nOCH3, —(CH2)n[O(CH2)m]yO(CH2)zCH3 (n=1-10; m, y, z=0-10)] were synthesized and characterized using ^1H NMR, ^13C NMR spectroscopy, and elemental analysis. The antitumor activities of these compounds were examined in a lung cancer cell line (A549) using the MTS cell proliferation assay and the results were compared to that of cisplatin and cisplatin derivatives.
(§1) Cells were cultured at a density of 2.1×10^3 cells per well in flat bottomed 96-well plates in 100 μl of medium supplemented with 10% fetal bovine serum (FBS), 25 mM HEPES buffer (pH 7.4), Penicillin (100 U/ml) and Streptomycin (100 μg/ml) and incubated at 37° C. in a humidified, 5% CO2 atmosphere for 2 days. The cells were then treated with DMSO or the appropriate drugs for 1 hour, washed thrice with 100 μl phosphate buffered saline (PBS), and incubated in 100 μl of fresh medium. After 2 days, the medium was replace with 120 μl of medium containing 50 μM phenazine ethosulfate (PES) and 317 μg/mL CellTiter 96® Aqueous One Solution Reagent (MTS) (Promega, Madison, Wis.). After 4 hours in culture the cell viability was determined by measuring the absorbance at 490 nm using a Tecan Infinite M1000 plate reader.
Cells were treated with CDDP or the platinum analogs at various concentrations for 1 hour and the viability was determined 48 h post-treatment using the MTS assay.
Cells were treated with CDDP or the platinum analogs at various concentrations for 48 hour and the viability was determined post-treatment using the MTS assay.

[2] = tested on: MCF7 human breast cancer cells; test: MTS assay, MCF7 breast cancer cells; assay type: cell-based; conditions: MCF7, up to a 1 mM concentration
Procedure: as §1
(§2) Cells were treated with CDDP or the platinum analog at various concentrations for 1 hour and the viability was determined 48 h post-treatment using the MTS assay.
(§3) This is a table comparison of EC50 (μM) determined from MTS assay data of the various cell lines treated with CDDP or the analog where R=(CH2)3CH3.

[3] = tested on: MDA-MB-435 human melanoma cancer cells; test: MTS assay, MDA-MB-435 melanoma cancer cells; assay type: cell-based; conditions: MDA-MB-435, up to a 1 mM concentration
Procedure: as §1, §2, §3

[4] = tested on: HCC38 human breast cancer cells; test: MTS assay, HCC38 breast cancer cells; assay type: cell-based; conditions: HCC38, up to a 1 mM concentration
Procedure: as §1, §2, §3

[5] = tested on mice; cited from earlier work
[6] = tested on: T-47D human breast cancer cells; test: MTS assay, T-47D breast cancer cells; assay type: cell-based; conditions: up to a 1 mM concentration
Procedure: as §1, §2, §3

[7] = tested on: DU-145 human prostate cancer cells; test: MTS assay, DU-145 prostate cancer cells; assay type: cell-based; conditions: DU-145, up to a 1 mM concentration
Procedure: as §1, §2, §3

Compound: N.N.O=C([O-])C1(C(=O)[O-])CCC1.[Pt+2] [carboplatin]
- effects in this experimental setting [1]: lack of effects

Compound: N.N.[Cl][Pt][Cl] [cisplatin, cis-diamminedichloroplatinum]
- effectiveness, 48 h treatment ([1]; A549, concentrations higher than 500 μM): not very effective
- effects in this experimental setting [1]: lack of effects
- effect on the A549 cells ([1]; one hour treatment, up to a 1 mM concentration): no effect
- effect on the cell line [2]: little or no effect
- effect on the cell line [3]: little or no effect
- effect on the cell line [4]: little or no effect
- percent increased life span (% ILS) [5]: 65-80%
- effect on the cell line [6]: little or no effect
- effect on the cell line [7]: little or no effect

Compound: O=C(O)C(=O)O.[NH-][C@@H]1CCCC[C@H]1[NH-].[Pt+2] [oxaliplatin]
- effects in this experimental setting [1]: lack of effects

Compound: Pd(II)(cis-2,2′-bipyridine)(NO3)2
- percent increased life span (% ILS) [5]: 55-70%
